In ChEMBL document CHEMBL1770102, “Identification of novel potential antibiotics for tuberculosis by in silico structure-based drug screening” (Eur J Med Chem, 2011):
Active and inactive are the calls of the source. The calls are words filed in the database; no cut-off is given here.

Key:
[1] = tested on: Rhodococcus opacus; experiment: Antibacterial activity against Rhodococcus opacus assessed as growth inhibition at 100 ug/ml after 72 hrs by microplate reader; type: functional
[2] = tested on: Mycobacterium vanbaalenii; experiment: Antibacterial activity against Mycobacterium vanbaalenii assessed as growth inhibition at 30 uM after 6 hrs by microplate reader; type: functional; conditions: Mycolicibacterium vanbaalenii
[3] = tested on: Mycobacterium vanbaalenii; experiment: Antibacterial activity against Mycobacterium vanbaalenii assessed as growth inhibition at 30 uM after 72 hrs by microplate reader; type: functional; conditions: Mycolicibacterium vanbaalenii
[4] = tested on: Rhodococcus opacus; experiment: Antibacterial activity against Rhodococcus opacus assessed as growth inhibition at 30 uM after 72 hrs by microplate reader; type: functional
[5] = tested on: Escherichia coli; experiment: Toxicity against Escherichia coli JM109; type: organism-based; conditions: in vivo
[6] = tested on: Escherichia coli; experiment: Toxicity against Escherichia coli BL21
[7] = tested on: Mycobacterium vanbaalenii; experiment: Antibacterial activity against Mycobacterium vanbaalenii assessed as inhibition of cell growth after 24 hrs; type: functional, Mycolicibacterium vanbaalenii
[8] = tested on: MDCK; experiment: Cytotoxicity against dog MDCK cells at 30 uM after 2 days by measuring absorbance at 460 nm; type: cell-based, Canis lupus familiaris; conditions: 48 h
[9] = tested on: SH-SY5Y; experiment: Cytotoxicity against human SH-SY5Y cells at 30 uM after 2 days by measuring absorbance at 460 nm; type: functional, cell-based
[10] = tested on: Rhodococcus opacus; experiment: Antibacterial activity against Rhodococcus opacus assessed as growth inhibition at 50 uM after 72 hrs by microplate reader; type: functional
[11] = tested on: Mycobacterium tuberculosis; experiment: Antibacterial activity against Mycobacterium tuberculosis assessed as inhibition of cell growth after 24 hrs; type: functional, organism-based

## CC1(C)S[C@@H]2[C@H](NC(=O)[C@H](N)c3ccccc3)C(=O)N2[C@H]1C(=O)O
[1]
  growth inhibition (GI): Active

## COC(=O)c1ccc(Cl)c(NC(=O)CN(c2ccc(OCc3ccccc3)cc2)S(C)(=O)=O)c1
[2]
  growth inhibition (GI): Active
[3]
  growth inhibition (GI): Active

## COc1cc2c(cc1NC(=O)CSc1nnc(-c3ccccc3C)n1Cc1ccoc1)oc1ccccc12
[2]
  growth inhibition (GI): Active
[3]
  growth inhibition (GI): Active
[4]
  growth inhibition (GI): Active
[5]
  Activity: Non-toxic
[6]
  Activity: Non-toxic
[7]
  IC50: 5.3 µM
[8]
  Activity: Non-toxic
[9]
  Activity: Not toxic

## COc1ccc(OC)c(NS(=O)(=O)c2ccc(NC(=O)CN3C(=O)c4cccc5cccc3c45)cc2)c1
[2]
  growth inhibition (GI): Active
[3]
  growth inhibition (GI): Active
[8]
  Activity: Toxic
[9]
  Activity: Toxic

## CN(C(=O)CSc1nc(Nc2ccccc2)nc(N2CCOCC2)n1)C12CC3CC(CC(C3)C1)C2
[2]
  growth inhibition (GI): Active
[3]
  growth inhibition (GI): inactive

## O=S(=O)(NCCc1ccccc1)c1cccc2c(S(=O)(=O)NCCc3ccccc3)cccc12
[2]
  growth inhibition (GI): inactive

## NNC(=O)c1ccncc1 [ISONIAZID]
[3]
  growth inhibition (GI): Active
[10]
  growth inhibition (GI): Active
[11]
  IC50: 15 µM
